Data set [1] addresses T1, Androgen receptor (Homo sapiens, UniProt P10275).
T1 sequence (P10275 whole entry): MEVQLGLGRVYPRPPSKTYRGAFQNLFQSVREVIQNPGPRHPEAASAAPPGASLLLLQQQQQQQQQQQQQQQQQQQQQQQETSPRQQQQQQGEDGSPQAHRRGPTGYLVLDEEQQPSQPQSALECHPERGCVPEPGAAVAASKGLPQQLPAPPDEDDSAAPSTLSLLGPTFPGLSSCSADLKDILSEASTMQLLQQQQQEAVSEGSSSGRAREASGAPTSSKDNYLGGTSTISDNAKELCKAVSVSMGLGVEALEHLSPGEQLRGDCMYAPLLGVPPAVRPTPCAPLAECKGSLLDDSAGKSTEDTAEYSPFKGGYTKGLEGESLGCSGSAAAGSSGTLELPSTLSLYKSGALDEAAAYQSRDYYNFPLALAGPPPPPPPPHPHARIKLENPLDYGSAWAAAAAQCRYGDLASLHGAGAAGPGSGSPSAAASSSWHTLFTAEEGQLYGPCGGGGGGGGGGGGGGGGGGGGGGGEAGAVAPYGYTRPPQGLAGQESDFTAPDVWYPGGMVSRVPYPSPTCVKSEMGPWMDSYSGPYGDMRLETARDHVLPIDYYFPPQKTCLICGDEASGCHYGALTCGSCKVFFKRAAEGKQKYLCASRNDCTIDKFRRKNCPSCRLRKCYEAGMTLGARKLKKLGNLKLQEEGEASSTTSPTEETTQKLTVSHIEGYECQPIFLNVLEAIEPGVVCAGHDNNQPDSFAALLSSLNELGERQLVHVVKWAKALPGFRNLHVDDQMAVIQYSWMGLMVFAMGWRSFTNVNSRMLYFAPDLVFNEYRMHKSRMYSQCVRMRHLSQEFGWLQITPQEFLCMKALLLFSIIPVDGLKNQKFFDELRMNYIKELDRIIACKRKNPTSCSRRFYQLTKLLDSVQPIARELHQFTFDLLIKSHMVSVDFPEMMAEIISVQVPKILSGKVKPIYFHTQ

For data set [2], the target named is T2, Glucocorticoid receptor (Homo sapiens, UniProt P04150).
T2 sequence (P04150 whole entry): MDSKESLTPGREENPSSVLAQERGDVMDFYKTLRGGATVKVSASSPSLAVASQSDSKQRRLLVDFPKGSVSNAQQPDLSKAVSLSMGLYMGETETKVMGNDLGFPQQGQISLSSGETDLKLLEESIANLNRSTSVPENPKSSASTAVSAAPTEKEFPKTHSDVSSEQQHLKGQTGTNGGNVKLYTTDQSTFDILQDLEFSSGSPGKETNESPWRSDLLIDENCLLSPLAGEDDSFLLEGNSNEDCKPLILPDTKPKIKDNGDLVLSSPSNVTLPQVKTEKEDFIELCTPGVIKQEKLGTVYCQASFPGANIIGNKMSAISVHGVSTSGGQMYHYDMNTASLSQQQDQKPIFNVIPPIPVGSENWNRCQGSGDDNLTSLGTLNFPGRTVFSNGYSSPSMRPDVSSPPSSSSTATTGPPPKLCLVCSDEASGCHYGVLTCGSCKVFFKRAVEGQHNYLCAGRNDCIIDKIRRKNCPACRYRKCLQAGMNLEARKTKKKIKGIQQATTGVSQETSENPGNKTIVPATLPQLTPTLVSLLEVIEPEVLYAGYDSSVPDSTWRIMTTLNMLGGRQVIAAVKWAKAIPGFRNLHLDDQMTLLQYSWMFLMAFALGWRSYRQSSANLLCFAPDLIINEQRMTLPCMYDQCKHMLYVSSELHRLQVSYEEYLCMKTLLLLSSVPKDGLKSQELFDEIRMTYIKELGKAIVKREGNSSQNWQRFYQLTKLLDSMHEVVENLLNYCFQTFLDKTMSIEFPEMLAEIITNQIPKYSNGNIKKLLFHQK
To be noted: pc-3.
Description: (§1) Inhibition of glucocorticoid receptor transcription in human PC-3 cells cotransfected with MMTV-luc and renilla plasmid at incubated for 24 hrs by Dual luciferase assay

The next data set deals with DU-145. Nature of the data set: Antiproliferative activity against human DU-145 cells assessed as reduction in cell viability measured after 72 hrs by CCK-8 method. The conditions noted are these: DU-145, 72 h.
A further data set has as its system PC-3. Kind of data set: Antiproliferative activity against human PC-3 cells assessed as reduction in cell viability measured after 72 hrs by CCK-8 method. The conditions noted are these: PC-3, 72 h. (In general: Tetrazolium dyes change colour on reduction, which living cells bring about.)
The next data set deals with LNCaP C4-2. Nature of the data set: Antiproliferative activity against human C4-2 cells assessed as reduction in cell viability measured after 72 hrs by CCK-8 method. To be noted: LNCaP C4-2, 72 h.
Data set [3] in a line: Antiproliferative activity against African green monkey COS-7 cells assessed as reduction in cell viability measured after 72 hrs by CCK-8 method. The conditions noted are these: chlorocebus aethiops.
A further data set concerns LNCaP. Kind of data set: Antiproliferative activity against human LNCaP cells assessed as reduction in cell viability measured after 72 hrs by CCK-8 method.
A further data set has as its system CWR22R. Kind of data set: Antiproliferative activity against human 22Rv1 cells assessed as reduction in cell viability measured after 72 hrs by CCK-8 method. To be noted: 22Rv1, 72 h.
In data set [4] the target is T1, Androgen receptor. Kind of data set: Antagonist activity at androgen receptor in human LNCaP cells incubated for 24 hrs by luminescence based firefly luciferase assay.
The target of data set [5] is T2, Glucocorticoid receptor.
Description: as §1

The text below walks through data of ChEMBL document CHEMBL5528070, “Design and Synthesis of Dual-Target Inhibitors Targeting Androgen Receptors and Glucocorticoid Receptors to Overcome Antiandrogen Resistance in Castration-Resistant Prostate Cancer” (J Med Chem, 2024).

SMILES strings stand for the structures.

What is called IC50 is the point on the concentration scale where inhibition reaches its midpoint. `O=C(Nc1ccc(C(=O)NC2CC2)s1)c1cccc(S(=O)(=O)N2CCCc3ccccc32)c1` had an IC50 against Androgen receptor [1] of 0.2 µM.

Compound `O=C(Nc1ccc(C(=O)NC23C[C@H]4C[C@H](C2)C[C@@H](C3)C4)s1)c1cccc(S(=O)(=O)N2CCCc3ccccc32)c1` came in with an IC50 at Androgen receptor [1] of 0.12 µM.

For the compound `CCOC(=O)c1ccc(NC(=O)c2ccc(S(=O)(=O)Nc3ccc(C)cc3)cc2)s1`, on Androgen receptor [1], the concentration for half-maximal inhibition (IC50) is 0.12 µM.

As to `CNC(=O)c1ccc(N2C(=S)N(c3ccc(C#N)c(C(F)(F)F)c3)C(=O)C2(C)C)cc1F` [ENZALUTAMIDE], the 50% inhibitory concentration (IC50) result at Glucocorticoid receptor [2] is “Not Active”.

At Androgen receptor [1], `Cc1ccc(NC(=O)c2ccc(NC(=O)c3ccc(S(=O)(=O)N4CCCc5ccccc54)cc3)s2)cc1` displayed an IC50 greater than 5 µM.

As for `CCOC(=O)c1ccc(NC(=O)c2cccc(S(=O)(=O)N3CCCc4ccccc43)c2)s1`, the IC50 against Androgen receptor [1] is 1.7 µM.

Broadly, the CC50 is the concentration at which the toxic effect on the cells reaches its halfway point. `CNC(=O)c1ccc(N2C(=S)N(c3cnc(C#N)c(C(F)(F)F)c3)C(=O)C23CCC3)cc1F` [APALUTAMIDE]: the half-maximal cytotoxic concentration (CC50) in the data set on DU-145 was greater than 50 µM; in the data set on PC-3 it was greater than 50 µM; in the data set on LNCaP C4-2, 41.7 µM; in the data set with LNCaP, 9.72 µM; in the data set on CWR22R, greater than 50 µM. The CC50 at 72 h in data set [3] was greater than 50 µM.

In turn, `CCc1cccc(NS(=O)(=O)c2cc3c4c(c2)CCC(=O)N4CCC3)c1` had a concentration for half-maximal inhibition (IC50) against Androgen receptor [4] of 0.394 µM.

As for `CC(O)c1cc(C(=O)N[C@@H](C)Cn2ccc(-c3ccc(C#N)c(Cl)c3)n2)n[nH]1` (stereo not given in full) [DAROLUTAMIDE], the CC50 with DU-145 was greater than 50 µM; with PC-3 it was greater than 50 µM; with LNCaP C4-2, 18.8 µM; with LNCaP, 7.04 µM; with CWR22R, greater than 50 µM. Besides, the CC50 at 72 h in data set [3] is greater than 50 µM.

Compound `CCOC(=O)c1ccc(NC(=O)c2cccc(S(=O)(=O)Nc3ccc4ccccc4c3)c2)s1` returned a half-maximal inhibitory concentration (IC50) against Glucocorticoid receptor [5] greater than 5 µM.
